Columns and labels:
migraine = assay: Clinical trial of glyburide for the prevention of migraine; assay type: in vivo, human; details: patients with a history of migraine; after 12 weeks of treatment; 0.5-3.0 mg/day
Protocol: This is a randomized, double-blind, placebo-controlled, parallel Group, dose-ranging study to investigate the efficacy, safety and tolerability of glyburide for the prevention of migraine.
(§1) In one arm, glyburide is administered as a bolus followed by continuous infusion.
(§2) In a second arm, glyburide is administered via a transdermal patch or gel.
(§3) In a third arm, glyburide is administered via injection, e.g., intravenous infusion.
(§4) In a fourth arm, glyburide is administered orally.
The study duration is several days up to one week.
Number of migraine headache days during weeks 9-12 of the treatment period.
Change in Scores From Completeness of Response Survey (CORS) (Time Frame: Visit 1 (screening) and Visit 2 (study completion following 2-month treatment period)).
CORS scores for Pain (0-4), Associated Symptoms (0-4), Limbic/Affective Symptoms (0-5), and Speed of Return to Functionality (1-5), represent outcome measures that are relevant to patients. Higher scores represent better treatment efficacy.
The analysis compares CORS scores for usual treatment (pre-study) versus glyburide (study medication).

[1] = test system: cerebral edema-related side effects; assay: Clinical trial of glyburide in patients undergoing CAR-T therapy, surgical excision of a brain tumor, and/or diagnosed with cerebral edema; assay type: in vivo, human; details: 0.5-3.0 mg/day
Protocol: as §1, §2, §3, §4
The study duration is days up to weeks.
Plasma levels of glyburide are determined daily.
The control group is matched for age, gender, and pre-operative stage.
(§5) Each patient is monitored via blood sampling and MRI. A diagnostic contrast-enhanced MRI of the brain is performed prior to inclusion in the study.
(§6) The following comparisons are made:
(§7) Occurrence of one or more cerebral edema-related side effects: • Headache • Neck pain or stiffness • Nausea or vomiting • Dizziness • Irregular breathing • Vision loss or changes • Memory loss • Inability to walk • Difficulty speaking • Stupor • Seizures • Loss of consciousness

[2] = test system: cerebral edema-related side effects; assay: Clinical trial of glyburide in patients with brain tumors or metastasis undergoing radiation therapy; assay type: in vivo, human; details: 0.5-3.0 mg/day
Protocol: as §1, §2, §3, §4
The study duration is weeks to months.
Plasma levels of glyburide are determined weekly.
The control group is matched for age, gender, and pre-radiation therapy stage.
as §5, §6, §7

[3] = Plasma pharmacokinetics of glyburide, bolus injection followed by 72 hours continuous infusion, healthy adult subjects; details: for Metabolite exposure versus administered dose of RP-1127: 0.4 mg/day vs 3.0 mg/day; for Metabolite level as share of the glyburide steady-state concentration: on average; for Average plasma metabolite concentration: through 72.5 hours after the initial bolus injection
Protocol: The two groups are referred to as the 0.4 mg/day group and the 3.0 mg/day group, respectively.

subjects with LHI = assay: Mortality study in 77 subjects with LHI given Cirara and/or tPA; assay type: in vivo, human; details: Group 1: tPA and a placebo; 22 subjects with LHI; tPA within 4.5 hours of stroke onset
Protocol: As used herein, the term “placebo” refers to an ostensibly pharmaceutical formulation with no pharmaceutically active agent, or lacks the particular pharmaceutical agent of interest in a given study. In the examples disclosed herein, the placebo is lacking the SUR1-TRPM4 channel inhibitor. As used herein, the term “Cirara” refers to a commercially available intravenous formulation of glyburide. In this example, tPA was administered in accordance with current clinical guidelines for managing ischemic stroke within 4.5 hours of stroke onset (Jauch et al. 2013).
The adverse outcome examined in the study was death. This was for exemplary purposes only and is not intended to be limiting.

Row | Time plasma metabolite levels first detected after the initial bolus RP-1127 IV injection ([3]; 0.4 mg/day dose group) [h] | Time plasma metabolite levels first detected after the initial bolus RP-1127 IV injection ([3]; 3.0 mg/day dose group) [h] | Metabolite level as share of the glyburide steady-state concentration [3] [%] | Average plasma metabolite concentration ([3]; 0.4 mg/day dose group) [ng/mL] | Average plasma metabolite concentration ([3]; 3.0 mg/day dose group) [ng/mL] | Molecule | Migraine outcome measures compared with the placebo group (migraine) | Cerebral edema-related side effects compared with the control group [1] | Cerebral edema-related side effects compared with the control group [2] | Metabolite exposure versus administered dose of RP-1127 [3] | Mortality Rate (subjects with LHI) [%]
1 | – | – | – | – | – | COc1ccc(Cl)cc1C(=O)NCCc1ccc(S(=O)(=O)NC(=O)NC2CCCCC2)cc1 [Glyburide, glyburide] | significantly improved | significantly reduced or inhibited | significantly reduced or inhibited | – | –
2 | 1 | 0.167 | 18 | – | – | COc1ccc(Cl)cc1C(=O)NCCc1ccc(S(=O)(=O)NC(=O)NC2CCC(O)CC2)cc1 (centres unmarked) [M1] | – | – | – | approximately proportional to the administered dose | –
3 | 2 | 0.333 | 6 | ≤ 0.19 | ≤ 1.4 | COc1ccc(Cl)cc1C(=O)NCCc1ccc(S(=O)(=O)NC(=O)NC2CCCC(O)C2)cc1 (centres unmarked) [M2] | – | – | – | approximately proportional to the administered dose | –
4 | – | – | – | – | – | tPA: Tissue plasminogen activator, a class of strong blood clot dissolving medicines | – | – | – | – | 41

— patent publication US11304963B2, “Methods of medical treatment with SUR1-TRPM4 channel inhibitors” (BIOGEN CHESAPEAKE LLC, priority 2016, dated 2022)
